Results as given in US6361995B1, “Protection of pancreatic β-cells during islet isolation and assessment of islet viability and candidate diabetes drugs after islet isolation” (NAB Research Foundation, priority 1999, dated 2002).

Assays:
β-cells = conditions: 50-100 mg/kg administered to a rat; development of diabetes; cited from earlier work
[1] = system: p135 (135 kD O-glycosylated protein) in isolated islets; assay: p135 O-glycosylation in isolated islets (RL2 immunoprecipitation and Western blotting); type: cell-based, rat; conditions: for increase in p135 O-glycosylation: 5 mM, 60 min, islets isolated in 11 mM glucose and 1 mM L-glutamine; for effect on glucose-induced p135 O-glycosylation: 100 μM DON with 28 mM glucose
Description: (§1) In a typical experiment, islets were isolated aseptically from 3-4 male Sprague-Dawley rats. During surgery, the common bile duct of each pancreas was cannulated, and the pancreas was inflated with 20 ml of Hank's Balanced Salt Solution (HBSS). The distended pancreas was excised, and lymph nodes, fat, blood vessels, and bile ducts were removed under a stereo dissecting microscope. Tissue was chopped extensively and rinsed 5-6 times with HBSS. The tissue was digested with collagenase P (3 mg/ml tissue) at 37° C. for 3-4 min using a wrist action shaker. Digested tissue was rinsed 3-4 times with HBSS, and islets were purified on a discontinuous Ficoll gradient consisting of 27%, 23%, 20.5%, and 11% Ficoll in (25 mM) HEPES-HBSS buffer. Islets were harvested from the gradient and washed once with HBSS. Islets were washed 6 times in DMEM supplemented with 25 mM HEPES pH 7.40, 25 mM NaHCO3, 0.1% bovine serum albumin, 3 mM glucose, and 1 mM L-glutamine (complete DMEM). This isolation procedure typically provided 300-400 islets per rat, which were then used as described below. In selected experiments, islets were isolated as described above, except that all isolation buffers were supplemented t o contain 11 mM glucose and 1 mM L-glutamine.
(§2) Freshly isolated islets were placed into siliconized 16×100-mm round bottom, screw-cap tubes and pre-incubated for 30 min in 1 ml of complete DMEM. For each experiment, 100 islets were placed into each tube. Pre-incubation and all subsequent incubations were performed at 37° C. under an atmosphere of 95% O2/5% CO2. After 30 min, pre-incubation buffer was aspirated, and islets were incubated with complete DMEM supplemented with the appropriate secretagogue. At the end of the incubation period, the entire supernatant was removed for insulin radioimmunoassay. Islets were processed for subsequent immunoprecipitation as described below. For each experiment, insulin secretion in the control sample was set at 100% and all other results were expressed as percentages of control.
At the end of the experiment, all supernatant was removed from the tubes or dishes. One ml of ice-cold lysis buffer (50 mM HEPES, pH 7.40, 150 mM NaCl, 1% Triton X-100, 5 mM EDTA, 5 mM EGTA, 20 mM NaF, 20 mM Na4P2O7, 1 mM NaVO4, 1 mg/ml bacitracin, 1 mM phenylmethylsulfonylfluoride, 1 μg/ml leupeptin, 1 μg/ml aprotinin) was added to each tube or dish. Cells were scraped on ice into 1.5 ml conical screw cap Eppendorf tubes. Borosilicate tubes containing islets were vortexed for 30 sec and placed on ice for 30 min. Islet samples were vortexed for an additional minute before transfer to 1.5-ml conical screw cap Eppendorf tubes. All subsequent immunoprecipitation steps were performed at 4° C. Samples were centrifuged at 10,000×g for 15 min. The supernatant was transferred to a second 1.5-ml conical Eppendorf tube, and O-glycosylated proteins were immunoprecipitated for 2 h on a rocker with 2 μl of mouse monoclonal RL2 antibody, which selectively binds to O-glycosylated protein (21,22). After 2 h, 20 μl of protein A trisacryl beads (Pierce) preadsorbed with 20 μg of rabbit anti-mouse antibody (Sigma) were added to the tubes and the incubation was continued for an additional 2 hours. At the end of the incubation, beads were washed once with Wash Buffer 1 (150 mM NaCl, 10 mM HEPES, pH 7.40, 1% Triton X-100, and 0.1% SDS) and once with Wash Buffer 2 (10 mM HEPES, pH 7.40, 1% Triton X-100, and 0.1% SDS). After the final washing step, 25 μl of 2× sample buffer (100 mM Tris, pH 6.80, 4% SDS, 20% glycerol, and 20 μg/liter bromophenol blue) was added to each tube. Samples were vortexed for 30 sec, boiled for 5 min, and stored at −20° C. prior to subsequent analysis.
Samples were loaded onto 7.5% SDS-polyacrylamide gels. Colored molecular weight markers (Amersham) were run on each gel. Proteins were separated for 1 h at 175 V at room temperature using a Bio-Rad Mini-PROTEAN II dual slab cell. […]

isolated islets = assay: Insulin secretion from isolated islets (radioimmunoassay); type: cell-based, rat; conditions: for Insulin (secretion in isolated islets): islets isolated in 11 mM glucose and 1 mM L-glutamine
Description: as §1, §2
Films were photographed using a Sony digital camera, and intensities of bands present on films were quantitated using the program NIH Image. All results are expressed as the mean±SEM, using the Windows-compatible version 2.98 of the program FigP (Biosoft, St. Louis, Mo.). Statistical analysis was performed using the same program. Data were analyzed by one-way analysis of variance followed by multiple comparisons between the means using the least significant difference test. A probability of p<0.05 was considered to indicate statistical significance.

β-TC3 cells = assay: Protein O-glycosylation in β-TC3 cells (RL2 immunoprecipitation and Western blotting); type: cell-based; conditions: 5 mM, 60 min after 30 min in 0 mM glucose (FIG. 8)
Description: β-TC3 cells (passage 37) were obtained form the University of Pennsylvania Diabetes Center from Dr. D. Hanahan (University of California, San Francisco). β-TC3 cells were cultured in 10-cm dishes in the presence of RPMI 1640 medium supplemented with 10% fetal bovine serum, penicillin (75 μg/ml), streptomycin (50 μg/ml), and 2 mM L-glutamine. Cells were trypsinized and subcloned weekly. Media were changed twice weekly and on the day prior to an experiment, and insulin responsiveness to glucose and carbachol was routinely monitored. Cells were used between passages 38 and 55.
β-TC3 cells in 10-cm dishes were washed three times in Krebs'-HEPES buffer (25 mM HEPES, pH 7.40, 115 mM NaCl, 24 mM NaHCO3, 5 mM KCl, 2.5 mM CaCl2, 1 mM MgCl2) supplemented with 0.1% bovine serum albumin and 1 mM L-glutamine. Cells were pre-incubated in 5 ml of the same buffer for 30 min at 37° C. under an atmosphere of 95% air/5% CO2. After 30 min, the pre-incubation buffer was aspirated and cells were incubated at 37° C. under an atmosphere of 95% air/5% CO2 with 5 ml of Krebs'-HEPES buffer supplemented with the appropriate secretagogue. At the end of the incubation period, supernatant was removed for insulin radioimmunoassay. Cells left in the dishes were processed for subsequent immunoprecipitation as described below.
At the end of the experiment, all supernatant was removed from the tubes or dishes. […]

[2] = system: RL2 antibody binding to p135; assay: Blocking of RL2 antibody immunoprecipitation of p135 by added sugars; set-up: species or system mouse; conditions: 0.3 M added during the RL2 immunoprecipitation step (FIG. 3)
Description: Islets (100/condition) were incubated for 60 min with either 3 mM glucose (G3) or 28 mM glucose following pre-incubation with 5 mM streptozotocin (STZ). At the end of the incubation period, O-glycosylated proteins were immunoprecipitated with RL2 antibody in the presence of 0.3 M N-acetylglucosamine (GlcNAc), 0.3 M N-acetylgalactosamine (GalNAc), or 0.3 M glucosamine (GlcN) and analyzed by Western blotting as described in FIG. 1.
At the end of the experiment, all supernatant was removed from the tubes or dishes. One ml of ice-cold lysis buffer (50 mM HEPES, pH 7.40, 150 mM NaCl, 1% Triton X-100, 5 mM EDTA, 5 mM EGTA, 20 mM NaF, 20 mM Na4P2O7, 1 mM NaVO4, 1 mg/ml bacitracin, 1 mM phenylmethylsulfonylfluoride, 1 μg/ml leupeptin, 1 μg/ml aprotinin) was added to each tube or dish. Cells were scraped on ice into 1.5 ml conical screw cap Eppendorf tubes. Borosilicate tubes containing islets were vortexed for 30 sec and placed on ice for 30 min. Islet samples were vortexed for an additional minute before transfer to 1.5-ml conical screw cap Eppendorf tubes. All subsequent immunoprecipitation steps were performed at 4° C. Samples were centrifuged at 10,000×g for 15 min. […]

In the case of CN(N=O)C(=O)N[C@H]1C(O)O[C@H](CO)[C@@H](O)[C@@H]1O (mixture of isomers) [streptozotocin], the “time to death of most of the β-cells” value (β-cells) is listed as no more than 8 h, the “reversibility of p135 O-glycosylation” value ([1]; 5 mM pre-incubation 30 min, then 3 or 28 mM glucose 30 min, then 3 mM glucose 30 min (FIG. 5)) is listed as “not readily reversible” and the “stimulation of p135 O-glycosylation in the presence of DON” value ([1]; 5 mM with 100 μM DON, 60 min (FIG. 4)) is listed as “able to increase p135 O-glycosylation”. The “increase in p135 O-glycosylation” value ([1]; compared to 3 mM glucose control (FIG. 7 experiment)) was 361.3±78.8%, the “increase in p135 O-glycosylation” value ([1]; versus 3 mM glucose control (FIG. 2)) was 333.9±66.8% and the “stimulation of p135 O-glycosylation” value ([1]; islets isolated in low glucose and no added L-glutamine, concentration not given) was “no consistent increase in p135 O-glycosylation”. The “Insulin (secretion in isolated islets)” value (isolated islets; 5 mM, DON 0, 60 min, control 3 mM glucose = 100) was 147.1 ± 16.8%, the “Insulin (secretion in isolated islets)” value (isolated islets; 5 mM, DON 100 (μM), 60 min, control 3 mM glucose = 100) was 115.6 ± 7.8% and the “O-glycosylation response of β-TC3 cells” value (β-TC3 cells) was “fail to undergo increased O-glycosylation”.

In the case of [N-]=[N+]=CC(=O)CC[C@H](N)C(=O)O [DON, 6-diazo-5-oxonorleucine], the “effect on glucose-induced p135 O-glycosylation” value ([1]; 60 min (FIG. 4)) is reported as “inhibited”, the “effect on glucose-induced p135 O-glycosylation” value ([1]; 60 min (FIG. 4), listed as 5-diazo-oxo-norleucine) is reported as “completely blocked” and the “effect on glucose-induced insulin secretion” value (isolated islets; 100 μM DON with 28 mM glucose, 60 min) is reported as “no significant effect”. For the same molecule, the “Insulin (secretion in isolated islets)” value (isolated islets; DON 100 (μM) in 3 mM glucose, 60 min, control 3 mM glucose without DON = 100) was 160.6 ± 50.5%.

With CC(=O)N[C@H]1C(O)O[C@H](CO)[C@H](O)[C@@H]1O (stereo partly drawn) [GalNAc, N-acetylgalactosamine] the “inhibition of RL2 immunoprecipitation of p135” value [2] was “neither GalNAc nor glucosamine added at the same concentration as GlcNAc prevented”.

In the case of CC(=O)N[C@H]1C(O)O[C@H](CO)[C@@H](O)[C@@H]1O (stereo partly drawn) [GlcNAc, N-acetylglucosamine], the “inhibition of RL2 immunoprecipitation of p135” value [2] is reported as “completely inhibited”.
